Measured values taken from EP0451299B1, “MAGNETOCONTROLLABLE CARRIER WITH PHYSIOLOGICALLY ACTIVE SUBSTANCE AND METHOD FOR MAKING SAID CARRIER” (KHOLODOV, Leonid Efimovich, priority 1989, dated 1991).

Assays:
[1] = system: oedème provoqué par le dextrane; assay: Anti-oedema activity, dextran-induced tail oedema (plethysmometer); format: in vivo, rats; conditions: ordinary solution i.v. 20 mg/kg; 1 hour after injection
From the text: On a essayé l'activité anti-oedémique du support, selon l'invention, contenant une préparation antihistaminique (la diphénylhydramine). Le support selon l'invention se composait de 56 à 63 % en masse de fer et de carbone pour le reste; la teneur en diphénylhydramine adsorbée était de 3 % en masse.
Des essais comparatifs de l'activitié anti-oedémique ont été effectués en la comparant à celle de la diphénylhydramine injectée sous forme de solution ordinaire.
Les sujets des essais étaient 30 rats mâles de la population Vistar d'un poids allant de 180 à 220 g. Pour obtenir un oedème expérimental, on a injecté par voie subplantaire au milieu de la queue de 10 rats, 0,1 ml de solution aqueuse de dextrane à 4 %. Un aimant permanent de samarium-cobalt (6000 Oe) a été fixé à cet endroit et on a injecté aussitôt lentement dans la veine caudale 20 mg de support, selon l'invention, contenant 0,6 mg de diphénylhydramine en 0,7 ml de solution de gélatinol à 8 % pour injections (dose moyenne en calculant en diphénylhydramine : 3 mg/kg). La localisation de la dispersion dans le canal vasculaire a été contrôlée par radiographie. Chez 10 rats on a injecté de la même façon la solution de dextrane et on a injecté aussitôt dans la veine caudale la solution de diphénylhydramine (dose : 20 mg/kg, soit en moyenne 5 mg par rat) en 0,7 ml de solution de gélatinol à 8 % pour injections. […]

[2] = system: carcinosarcome de Walker, sarcome S-45 ou sarcome M-1; format: in vivo, rats; conditions: for régression complète de la tumeur / durée de vie, augmentation par rapport au groupe témoin (sans antibiotiques): ordinary solution i.v., no carrier: daunorubicyne 2 mg/kg/jour for 5 days, carminomicyne 3 x 0,4 mg/kg at 120 h intervals; for durée de vie, augmentation par rapport au groupe témoin (sans antibiotiques): mean; for examens histologiques de divers tissus, surtout du tissu hépatique / hémopoïèse: rat, in vivo, iv
From the text: Dans les essais effectués, le support selon l'invention était porteur d'une préparation anticancéreuse : daunorubicyne, doxorubicyne ou carminomicyne; teneur en fer : 56 à 64 % en masse, le reste étant du carbone; teneur en antibiotique daunorubicyne, doxorubicyne ou carminomycine adsorbé : 2 à 2,5 % en masse.
L'action anticancéreuse a été établie chez des rats et comparée à celle des microsphères connues portant lesdits antibiotiques (taille moyenne des microsphères: 0,2 à 0,5 »m; enveloppe en albumine dénaturée), ainsi qu'à celle de ces médicaments anticancéreux sans support à commande magnétique. Les sujets expérimentaux étaient des rats d'une masse allant de 180 à 220 g. On a réinoculé aux rats (au milieu de la queue) une des […] couches des tumeurs réinoculables des rats; carcinosarcome de Walker, sarcome S-45 ou sarcome M-1 (40 rats pour chaque souche). Le traitement des animaux a commencé lorsque le volume de la teneur avait 1000 mm³.
Le support selon l'invention contenant de la daunorubicyne ou de la carminomicyne a été injecté en une seule fois lentement dans la veine caudale des rats, dose de 40 mg (0,8 mg en calculant en antibiotique, soit 4 mg/kg), sous forme d'une suspension en 1 ml de solution de gélatinol à 8 % pour injections. Dans le cas de la doxorubicyne la dose a été de 12 mg/kg (dose de support : 96 mg en calculant en antibiotique. Avant l'injection, un aimant permanent de samarium-cobalt (6000 Oe) a été fixé sur la queue au niveau de la tumeur. La localisation du support à antibiotique selon l'invention dans le vaisseau au niveau de la tumeur a été contrôlée à l'aide de radiogrammes.
Les microsphères albumineuses ont été injectées en une seule fois, comme décrit ci-dessus, dans une dose de 4 mg/kg (en calculant en daunorubicyne ou en carminomicyne). Les antibiotiques (sans support à commande magnétique) ont été injectés comme suit : la daunorubicyne a été injectée dans la veine caudale des rats avec une dose de 2 mg/kg/jour en solution de gélatinol à 8 % pour des injections pendant 5 jours (une injection par jour); carminomicyne : 0,4 mg/kg 3 fois avec des intervalles de 120 heures; doxorubicyne : en une seule fois avec une dose de 12 mg/kg. Dans le groupe témoin des animaux atteints de tumeur on a injecté dans la veine, 1 ml de solution de gélatinol à 8 % pour injections.

| SMILES | augmentation du volume de la queue [1] | augmentation du volume de la queue plus faible que dans le groupe témoin [1] | régression complète de la tumeur [2] | durée de vie, augmentation par rapport au groupe témoin (sans antibiotiques) [2] | examens histologiques de divers tissus, surtout du tissu hépatique [2] | hémopoïèse [2] |
| --- | --- | --- | --- | --- | --- | --- |
| CN(C)CCOC(c1ccccc1)c1ccccc1 [diphénylhydramine] | 1025±41 mm³ | 33±2% |  |  |  |  |
| CC(=O)[C@]1(O)Cc2c(O)c3c(c(O)c2[C@@H](O[C@H]2C[C@H](N)[C@H](O)[C@H](C)O2)C1)C(=O)c1c(O)cccc1C3=O [carminomicyne] |  |  | en aucun cas | 15-30% | altérations cytotoxiques graves | oppression de l'hémopoïèse |
| COc1cccc2c1C(=O)c1c(O)c3c(c(O)c1C2=O)C[C@@](O)(C(C)=O)C[C@@H]3O[C@H]1C[C@H](N)[C@H](O)[C@H](C)O1 [daunorubicyne] |  |  | en aucun cas | 15-30% | altérations cytotoxiques graves | oppression de l'hémopoïèse |
